pIC50: −log10 of the molar value. Converted amounts (≈) assume the structure as drawn.
Assays:
[1] = biological target: Phosphatidylinositol 4,5-bisphosphate 3-kinase catalytic subunit alpha isoform (Homo sapiens, UniProt P42336); test: Inhibition of PI3Kalpha (unknown origin) using PIP2 as substrate measured after 1 hr in presence of ATP by ADP-glo luminescence assay
[2] = biological target: T1, Phosphatidylinositol 4,5-bisphosphate 3-kinase catalytic subunit delta isoform (Homo sapiens, UniProt O00329); test: Inhibition of PI3Kdelta (unknown origin) using PIP2 as substrate measured after 1 hr in presence of ATP by ADP-glo luminescence assay
T1 sequence (O00329 whole entry): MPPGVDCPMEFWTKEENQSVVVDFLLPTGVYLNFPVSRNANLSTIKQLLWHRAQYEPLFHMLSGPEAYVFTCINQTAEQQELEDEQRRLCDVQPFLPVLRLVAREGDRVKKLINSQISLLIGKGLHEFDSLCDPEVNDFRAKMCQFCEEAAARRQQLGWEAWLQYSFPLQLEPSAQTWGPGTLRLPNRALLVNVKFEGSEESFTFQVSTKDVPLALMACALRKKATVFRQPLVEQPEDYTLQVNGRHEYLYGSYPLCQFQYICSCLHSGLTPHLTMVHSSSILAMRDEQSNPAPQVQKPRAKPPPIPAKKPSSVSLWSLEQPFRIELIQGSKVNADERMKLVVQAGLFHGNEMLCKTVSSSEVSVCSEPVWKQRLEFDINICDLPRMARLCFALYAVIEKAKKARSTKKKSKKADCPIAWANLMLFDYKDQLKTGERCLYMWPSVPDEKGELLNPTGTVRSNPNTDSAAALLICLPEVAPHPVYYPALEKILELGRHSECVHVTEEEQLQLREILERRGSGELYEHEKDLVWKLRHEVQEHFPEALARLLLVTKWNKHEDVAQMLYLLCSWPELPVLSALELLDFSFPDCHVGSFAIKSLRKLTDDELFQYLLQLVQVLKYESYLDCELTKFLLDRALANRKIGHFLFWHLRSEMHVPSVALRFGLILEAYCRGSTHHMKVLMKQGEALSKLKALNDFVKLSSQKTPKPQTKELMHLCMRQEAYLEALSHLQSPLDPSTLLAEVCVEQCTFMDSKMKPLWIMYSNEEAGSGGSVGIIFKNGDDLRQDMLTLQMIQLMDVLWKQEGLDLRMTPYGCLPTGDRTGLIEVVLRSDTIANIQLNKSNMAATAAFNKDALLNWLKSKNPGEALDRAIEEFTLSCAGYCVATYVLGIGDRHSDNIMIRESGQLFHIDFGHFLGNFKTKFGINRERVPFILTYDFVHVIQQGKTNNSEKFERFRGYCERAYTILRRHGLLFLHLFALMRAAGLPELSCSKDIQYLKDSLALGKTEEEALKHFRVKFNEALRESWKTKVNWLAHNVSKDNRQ

[3] = biological target: Phosphatidylinositol 4,5-bisphosphate 3-kinase catalytic subunit gamma isoform (Homo sapiens, UniProt P48736); test: Inhibition of PI3Kgamma (unknown origin) using PIP2 as substrate measured after 1 hr in presence of ATP by ADP-glo luminescence assay
[4] = Microsomal stability in mouse liver microsomes assessed as half life; type: ADME, Microsome
[5] = Solubility of the compound in PBS; type: physicochemical
[6] = biological target: Phosphatidylinositol 4,5-bisphosphate 3-kinase catalytic subunit gamma isoform (Mus musculus, UniProt Q9JHG7); test: Inhibition of PI3Kgamma in C5a stimulated mouse RAW264.7 cells incubated for 10 mins by AlphaLisa assay; type: cell-based
[7] = biological target: T2, Phosphatidylinositol 4,5-bisphosphate 3-kinase catalytic subunit beta isoform (Homo sapiens, UniProt P42338); test: Inhibition of PI3Kbeta in LPA stimulated human PC-3 cells incubated for 10 mins by AlphaLISA assay; type: cell-based
[8] = Solubility of the compound in FaSSIF; type: physicochemical
[9] = biological target: T2, Phosphatidylinositol 4,5-bisphosphate 3-kinase catalytic subunit beta isoform; test: Inhibition of PI3Kbeta (unknown origin) using PIP2 as substrate measured after 1 hr in presence of ATP by ADP-glo luminescence assay
[10] = biological target: Serine/threonine-protein kinase mTOR (Homo sapiens, UniProt P42345); test: Inhibition of mTOR (unknown origin)
[11] = biological target: T1, Phosphatidylinositol 4,5-bisphosphate 3-kinase catalytic subunit delta isoform; test: Inhibition of PI3Kdelta in IgM stimulated human Raji cells incubated for 10 mins by AlphaLISA assay; type: cell-based
[12] = Plasma protein binding in mouse; type: ADME, cell-free; settings: read-out: PPB (converted)
[13] = Microsomal stability in mouse liver microsomes assessed as intrinsic clearance; type: ADME, Microsome; settings: read-out: CLH
[14] = biological target: Phosphatidylinositol 4,5-bisphosphate 3-kinase catalytic subunit alpha isoform (Mus musculus, UniProt P42337); test: Inhibition of PI3Kalpha in IGF-1 stimulated mouse C2C12 cells incubated for 10 mins by AlphaLISA assay; type: cell-based
Sequence of Phosphatidylinositol 4,5-bisphosphate 3-kinase catalytic subunit alpha isoform (Mus musculus, UniProt P42337) (P42337 whole entry, canonical isoform): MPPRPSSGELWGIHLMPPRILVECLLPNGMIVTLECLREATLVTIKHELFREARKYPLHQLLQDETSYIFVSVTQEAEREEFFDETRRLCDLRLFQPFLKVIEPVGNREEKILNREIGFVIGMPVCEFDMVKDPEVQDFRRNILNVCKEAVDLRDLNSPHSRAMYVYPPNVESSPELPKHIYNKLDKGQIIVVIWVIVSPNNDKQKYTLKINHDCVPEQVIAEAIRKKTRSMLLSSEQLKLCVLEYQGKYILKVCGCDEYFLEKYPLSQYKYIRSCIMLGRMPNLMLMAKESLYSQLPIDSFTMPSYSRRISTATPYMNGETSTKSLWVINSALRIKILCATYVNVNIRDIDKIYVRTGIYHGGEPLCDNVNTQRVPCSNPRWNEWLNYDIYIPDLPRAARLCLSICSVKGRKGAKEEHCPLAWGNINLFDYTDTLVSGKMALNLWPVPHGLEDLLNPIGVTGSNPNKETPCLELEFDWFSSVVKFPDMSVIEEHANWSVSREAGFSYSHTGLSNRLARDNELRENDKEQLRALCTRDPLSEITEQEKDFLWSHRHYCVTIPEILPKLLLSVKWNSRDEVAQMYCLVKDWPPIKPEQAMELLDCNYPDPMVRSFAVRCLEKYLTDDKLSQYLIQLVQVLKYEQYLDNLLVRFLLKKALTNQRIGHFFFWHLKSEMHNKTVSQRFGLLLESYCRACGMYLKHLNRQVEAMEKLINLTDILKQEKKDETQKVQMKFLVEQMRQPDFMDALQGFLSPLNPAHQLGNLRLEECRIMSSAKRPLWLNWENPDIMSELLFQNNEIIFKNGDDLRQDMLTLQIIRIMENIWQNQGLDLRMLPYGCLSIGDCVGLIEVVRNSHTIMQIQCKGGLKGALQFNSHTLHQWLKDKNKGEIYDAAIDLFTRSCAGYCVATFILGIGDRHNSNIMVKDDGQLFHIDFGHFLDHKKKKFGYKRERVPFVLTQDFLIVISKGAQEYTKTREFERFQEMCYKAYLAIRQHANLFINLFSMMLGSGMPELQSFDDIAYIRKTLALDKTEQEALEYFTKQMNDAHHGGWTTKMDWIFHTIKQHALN

Sequence of Phosphatidylinositol 4,5-bisphosphate 3-kinase catalytic subunit alpha isoform (Homo sapiens, UniProt P42336) (P42336 whole entry, canonical isoform): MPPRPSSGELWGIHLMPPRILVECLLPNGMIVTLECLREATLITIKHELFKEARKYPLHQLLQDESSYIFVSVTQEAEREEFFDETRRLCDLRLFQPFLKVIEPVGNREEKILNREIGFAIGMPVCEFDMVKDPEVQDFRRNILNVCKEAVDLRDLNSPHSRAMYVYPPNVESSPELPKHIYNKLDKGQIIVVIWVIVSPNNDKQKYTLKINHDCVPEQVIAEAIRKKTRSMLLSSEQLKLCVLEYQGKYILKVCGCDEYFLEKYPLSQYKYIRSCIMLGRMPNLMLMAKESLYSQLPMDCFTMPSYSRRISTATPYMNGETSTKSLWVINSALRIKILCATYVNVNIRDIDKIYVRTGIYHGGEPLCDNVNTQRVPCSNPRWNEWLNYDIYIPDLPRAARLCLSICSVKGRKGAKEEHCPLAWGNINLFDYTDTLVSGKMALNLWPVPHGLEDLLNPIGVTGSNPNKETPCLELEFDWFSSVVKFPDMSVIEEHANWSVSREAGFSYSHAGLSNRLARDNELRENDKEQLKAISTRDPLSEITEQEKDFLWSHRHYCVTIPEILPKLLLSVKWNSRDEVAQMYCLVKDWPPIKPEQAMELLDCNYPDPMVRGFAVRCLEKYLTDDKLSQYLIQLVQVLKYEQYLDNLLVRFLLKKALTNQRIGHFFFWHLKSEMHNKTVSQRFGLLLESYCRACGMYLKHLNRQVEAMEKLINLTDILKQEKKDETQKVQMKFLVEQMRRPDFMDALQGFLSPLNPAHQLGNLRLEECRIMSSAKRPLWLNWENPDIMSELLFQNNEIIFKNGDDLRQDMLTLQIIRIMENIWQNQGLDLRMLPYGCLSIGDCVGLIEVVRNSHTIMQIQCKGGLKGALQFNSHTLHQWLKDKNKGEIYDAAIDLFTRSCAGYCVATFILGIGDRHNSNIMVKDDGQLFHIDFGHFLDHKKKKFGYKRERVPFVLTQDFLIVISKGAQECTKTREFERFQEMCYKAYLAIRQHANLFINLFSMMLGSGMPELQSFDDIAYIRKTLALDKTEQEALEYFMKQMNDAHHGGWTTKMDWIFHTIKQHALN
T2 sequence (P42338 whole entry, canonical isoform): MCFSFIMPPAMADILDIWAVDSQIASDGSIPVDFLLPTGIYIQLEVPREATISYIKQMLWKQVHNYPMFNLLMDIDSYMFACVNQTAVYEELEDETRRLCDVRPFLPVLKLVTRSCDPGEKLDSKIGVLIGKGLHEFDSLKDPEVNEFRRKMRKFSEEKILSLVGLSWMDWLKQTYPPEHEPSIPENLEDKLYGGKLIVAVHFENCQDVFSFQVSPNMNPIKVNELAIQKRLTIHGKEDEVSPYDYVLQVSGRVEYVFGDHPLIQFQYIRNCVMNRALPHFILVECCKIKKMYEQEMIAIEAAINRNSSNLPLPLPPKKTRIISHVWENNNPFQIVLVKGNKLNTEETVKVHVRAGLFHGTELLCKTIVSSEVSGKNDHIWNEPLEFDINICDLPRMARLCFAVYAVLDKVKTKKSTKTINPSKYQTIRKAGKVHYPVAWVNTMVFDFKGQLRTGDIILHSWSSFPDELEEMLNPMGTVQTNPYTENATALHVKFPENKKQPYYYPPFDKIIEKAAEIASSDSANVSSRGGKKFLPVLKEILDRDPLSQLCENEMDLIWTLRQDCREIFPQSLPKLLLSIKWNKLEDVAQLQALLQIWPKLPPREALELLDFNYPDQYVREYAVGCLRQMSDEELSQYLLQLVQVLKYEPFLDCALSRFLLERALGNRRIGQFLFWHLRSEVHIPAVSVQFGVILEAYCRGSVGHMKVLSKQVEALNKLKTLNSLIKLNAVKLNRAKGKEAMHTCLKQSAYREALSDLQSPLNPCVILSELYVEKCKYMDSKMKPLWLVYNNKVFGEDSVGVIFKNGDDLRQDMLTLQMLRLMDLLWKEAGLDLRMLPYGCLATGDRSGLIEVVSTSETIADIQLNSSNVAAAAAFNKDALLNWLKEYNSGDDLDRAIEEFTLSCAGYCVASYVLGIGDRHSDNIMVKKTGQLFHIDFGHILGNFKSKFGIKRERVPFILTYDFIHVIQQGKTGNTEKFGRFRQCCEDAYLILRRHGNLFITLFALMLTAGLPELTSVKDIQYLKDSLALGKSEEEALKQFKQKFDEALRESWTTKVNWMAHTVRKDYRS
Sequence of Phosphatidylinositol 4,5-bisphosphate 3-kinase catalytic subunit gamma isoform (Homo sapiens, UniProt P48736) (P48736 whole entry, canonical isoform): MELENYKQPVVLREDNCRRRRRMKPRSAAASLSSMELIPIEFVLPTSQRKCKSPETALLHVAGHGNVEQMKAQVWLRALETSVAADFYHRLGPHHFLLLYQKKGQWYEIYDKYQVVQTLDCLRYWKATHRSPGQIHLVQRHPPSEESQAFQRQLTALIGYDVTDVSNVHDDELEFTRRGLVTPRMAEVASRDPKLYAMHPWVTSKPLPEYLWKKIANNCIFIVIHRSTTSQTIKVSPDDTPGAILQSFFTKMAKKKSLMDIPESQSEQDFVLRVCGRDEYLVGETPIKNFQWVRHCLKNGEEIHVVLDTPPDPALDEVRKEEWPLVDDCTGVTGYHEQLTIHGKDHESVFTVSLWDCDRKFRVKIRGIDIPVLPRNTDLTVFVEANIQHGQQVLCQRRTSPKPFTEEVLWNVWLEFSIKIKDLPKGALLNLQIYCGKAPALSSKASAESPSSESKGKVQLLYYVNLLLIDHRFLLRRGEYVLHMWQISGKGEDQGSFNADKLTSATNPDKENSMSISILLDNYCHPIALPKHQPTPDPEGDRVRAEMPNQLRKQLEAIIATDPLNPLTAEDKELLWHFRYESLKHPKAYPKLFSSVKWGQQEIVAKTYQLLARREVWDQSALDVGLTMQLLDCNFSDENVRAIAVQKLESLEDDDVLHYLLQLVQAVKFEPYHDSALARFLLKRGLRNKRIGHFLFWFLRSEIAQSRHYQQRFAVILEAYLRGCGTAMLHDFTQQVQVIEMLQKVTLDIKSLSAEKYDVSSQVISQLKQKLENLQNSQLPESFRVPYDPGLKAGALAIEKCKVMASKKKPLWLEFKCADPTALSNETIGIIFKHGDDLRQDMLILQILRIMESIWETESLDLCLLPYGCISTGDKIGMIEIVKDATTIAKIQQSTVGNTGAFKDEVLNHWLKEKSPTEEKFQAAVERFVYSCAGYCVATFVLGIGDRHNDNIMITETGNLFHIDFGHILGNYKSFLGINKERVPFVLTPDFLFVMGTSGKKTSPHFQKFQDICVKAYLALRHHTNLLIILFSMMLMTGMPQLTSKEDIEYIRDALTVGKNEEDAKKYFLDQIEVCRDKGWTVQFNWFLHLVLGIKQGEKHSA

pIC50 [1]	pIC50 [2]	Compound	other results
6.39	8.00	COc1cc(-c2cc3c(O[C@H]4CCN(C(=O)C(C)C)C4)ncnc3s2)cnc1OC	
6.23	7.68	CCC(=O)N1CC[C@H](Nc2ncnc3sc(-c4ccc(OC)c(OC)c4)cc23)C1	
6.49	8.00	COc1cc(-c2cc3c(O[C@H]4CCN(C(=O)C5CC5)C4)ncnc3s2)cnc1OC	
5.69	6.99	CCC(=O)N1CC[C@H](Nc2ncnc3sc(-c4cnc(OC)c(C(F)(F)F)c4)cc23)C1	
6.62	7.26	COc1cc(-c2cc3c(N[C@H]4CCN(C(=O)C(C)C)C4)ncnc3s2)cnc1OC	
6.40	7.59	COc1cc(-c2cc3c(N[C@H]4CCN(C(=O)c5ccccc5)C4)ncnc3s2)cnc1OC	
6.41	8.48	COc1cc(-c2cc3c(O[C@H]4CCN(C(=O)C5CCC5)C4)ncnc3s2)cnc1OC	pIC50 [3]: 5.54; half-life [4]: 5.09 min; solubility [5]: 1.41 µM (≈ 0.621 µg/mL); pIC50 [6]: 5.22; pIC50 [7]: 5.21; solubility [8]: 5.89 µM (≈ 2.59 µg/mL); pIC50 [9]: 5.71; pIC50 [10]: < 5.00; pIC50 [11]: 7.12; fraction unbound [12]: 0.011; CLint scaled [13]: 1070 mL/min/kg; pIC50 [14]: 4.55
6.32	8.07	COc1cc(-c2cc3c(N[C@H]4CCN(C(=O)C5CCCC5)C4)ncnc3s2)cnc1OC	
< 5.00	6.33	CCC(=O)N1CC[C@H](Nc2ncnc3sc(-c4ccc(S(C)(=O)=O)cc4)cc23)C1	
6.10	7.28	COc1cc(-c2cc3c(N[C@H]4CCN(C(=O)C(C)(C)C)C4)ncnc3s2)cnc1OC	
6.44	7.92	CCCC(=O)N1CC[C@H](Nc2ncnc3sc(-c4cnc(OC)c(OC)c4)cc23)C1	
5.47	7.27	CCC(=O)N1CC[C@H](Nc2ncnc3sc(-c4cnc(OC)c(F)c4)cc23)C1	
5.54	6.87	CCC(=O)N1CC[C@H](Nc2ncnc3sc(-c4ccc(OC)nc4)cc23)C1	
6.81	8.33	COc1cc(-c2cc3c(N[C@H]4CCN(C(=O)C5CC5)C4)ncnc3s2)cnc1OC	
5.92	7.42	CCC(=O)N1CC[C@H](Nc2ncnc3sc(-c4cncc(S(C)(=O)=O)c4)cc23)C1	

Reference: ChEMBL document CHEMBL5154925, “Design and Optimization of Thienopyrimidine Derivatives as Potent and Selective PI3Kδ Inhibitors for the Treatment of B-Cell Malignancies” (J Med Chem, 2022)
